Experimental data published in publication PMC2362091, “Expression of V1A and GRP receptors leads to cellular transformation and increased sensitivity to substance-P analogue-induced growth inhibition” (British Journal of Cancer, 2005).
≈ marks a conversion by molar mass, not a printed value. Where two headings read alike, the source gives them in different places. Square brackets hold non-standard residues; d marks the D form. Peptide text beside a SMILES is read from it. NMeF = CN[C@@H](Cc1ccccc1)C(=O)O

How the values were obtained:
[1] = tested on: ERK phosphorylation in untransfected CHO cells; test: ERK phosphorylation (Western blot), untransfected CHO cells; format: cell-based; conditions: data not shown
Procedure: (§1) Quiescent cell cultures in six-well plates were treated as described in figure legends and lysed at 4°C in 0.25 ml lysis buffer containing; 25 mM HEPES pH 7.4, 0.3 M NaCl, 1.5 mM MgCl2, 0.2 mM EDTA, 0.5% Triton X-100, 20 mM β-glycerphosphate, 0.5 mM dithiothreitol, 1 mM sodium orthovanadate and protease inhibitors (Boehringer Mannheim, Sussex, UK; prepared as per the manufacturer's instructions). Lysates were clarified by centrifugation, equilibrated for protein using BCA protein assay reagent (Perbio Science, Cheshire, UK) and denatured by boiling (5 min) in SDS–PAGE loading buffer. In all, 20 μl lysate/lane was resolved on 12% SDS–PAGE gels and electroblotted onto nitrocellulose membranes. Membranes were blocked in 3% bovine serum albumin in PBS containing 0.05% Tween-20. ERK1/2 phosphorylation was determined using 1 : 1000 dilution of the primary antibody followed by the appropriate HRP-labelled goat IgG (DAKO, UK) diluted 1 : 5000. Bands were visualized using enhanced chemiluminescence (ECL plus, Amersham) and quantified using a phosphor imager (Storm).
In this study, ERK activation was measured in CHO cells expressing GRP or V1A receptors in response to the appropriate neuropeptide or substance-P analogue. Activation was estimated in immunoblots from stimulated lysates using a phosphorylation state-specific antibody. […]

[2] = tested on: untransfected CHO-K1 cells; test: Intracellular Ca2+ (FURA-2), untransfected cells; format: cell-based; conditions: data not shown
CHO-GRPr cells = test: Chemosensitivity, MTT assay, GRPr cells; format: cell-based
Procedure: (§2) In some assays, MTT (3-[4,5-dimethylthiazol-2yl]-2,5-diphenyl tetrazolium bromide) formazan production (Sigma) was used to measure proliferation as per the manufacturer's instructions.
(§3) Figure 4 Effect of neuropeptide on chemosensitivity. Wild-type CHO-K1 cells (left) and cells expressing the V1A (middle) or GRP (right) receptor were plated at a density of 1e^4 cells per well of a 96-well tissue culture plate in DMEM with 10% FCS and incubated overnight 37°C. […] Cell viability was assessed by MTT staining.

CHO-V1Ar cells = test: cells; format: cell-based
Procedure: as §2, §3

CHO-WT cells = test: Chemosensitivity, MTT assay, wild-type cells; format: cell-based; conditions: 48 h, absence of serum; read-out: IC50, inhibition of proliferation (MTT)
Procedure: as §2, §3

human V1A receptor [3] = biological target: T1, human V1A receptor (Homo sapiens, UniProt P37288); test: Receptor binding, [125I]-AVP, CHO-K1-V1Ar cells; conditions: V1A over GRP receptor, from Ki
T1 construct: CHO-K1 cells were transfected with full-length human GRP receptor or human V1A receptor; expressed in transfected cells
T1 sequence (P37288 whole entry): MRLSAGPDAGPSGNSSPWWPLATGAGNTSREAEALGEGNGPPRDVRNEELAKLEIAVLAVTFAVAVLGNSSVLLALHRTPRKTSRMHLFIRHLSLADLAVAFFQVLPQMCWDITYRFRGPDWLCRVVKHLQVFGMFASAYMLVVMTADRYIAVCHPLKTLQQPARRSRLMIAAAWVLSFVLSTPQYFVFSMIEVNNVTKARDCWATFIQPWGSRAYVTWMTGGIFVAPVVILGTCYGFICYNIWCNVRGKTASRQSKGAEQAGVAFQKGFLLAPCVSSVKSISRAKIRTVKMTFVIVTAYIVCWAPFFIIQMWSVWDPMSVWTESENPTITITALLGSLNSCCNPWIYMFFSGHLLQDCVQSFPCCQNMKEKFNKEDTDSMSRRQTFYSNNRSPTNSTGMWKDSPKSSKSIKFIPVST
Procedure: CHO-K1 cells were maintained in DMEM supplemented with 10% (v v^−1) foetal bovine serum (heat-inactivated at 57°C for 1 h) 50 U ml^−1 penicillin, 50 μg ml^−1 streptomycin and 5 μg ml^−1 L-glutamine in a humidified atmosphere of 5% CO2:95% air at 37°C. CHO-K1 cells were transfected with full-length human GRP receptor or human V1A receptor using lipofectamine plus (Invitrogen) as per the manufacturer's instructions. Stable cell cultures were maintained in the presence of 400 μg ml^−1 G418-sulphate.
The binding parameters Kd and Bmax were calculated from competition binding isotherms with unlabelled ligand ([DeBlasi et al, 1989]).

[4] = parameters: method as in Clive et al, 2001; conditions: at therapeutic plasma concentrations; ref Clive et al, 2001; cited from earlier work
[5] = tested on: V1AR-transfected CHO-K1 cells; test: Aggregation assay (anchorage-independent growth), V1AR-transfected cells; format: cell-based; conditions: low adhesion plates, 5% FCS, 7 days, viable cells counted
Procedure: (§4) CHO-K1 cells were suspended in DMEM in the presence of 5% FCS and seeded into low adhesion tissue culture plates on top of a layer (1 ml) of 0.5% agar. […] Cells were maintained in culture for 7 days briefly trypsinised to disaggregate clusters and viable cells counted.
(§5) Figure 3 Effect of SP-D and SP-G on clonal growth. (A) Cells were grown in 0.3% agar with 1% FCS for 8 days in the presence or absence (open bar) of 30 μM SP-D (black bar) or SP-G (grey bar). […] Aggregation assay. (B) Wild-type, GRPR-transfected and V1AR-transfected CHO-K1 cells were plated into low adhesion tissue culture plates on top of a layer of 0.5% agar in DMEM containing 5% FCS at a density of 5 × 10^4 ml^−1 in the presence of varying concentrations of SP-G. Cells were maintained in culture for 7 days, briefly trypsinised to dissagregate clusters and viable cells counted by propidium iodide exclusion.

[6] = tested on: ERK phosphorylation in V1A receptor expressing CHO cells; test: ERK phosphorylation (Western blot), V1A receptor expressing CHO cells; format: cell-based; conditions: for stimulation of ERK: at 50 μM
Procedure: as §1
(§6) In this study, ERK activation was measured in CHO cells expressing GRP or V1A receptors in response to the appropriate neuropeptide or substance-P analogue. Activation was estimated in immunoblots from stimulated lysates using a phosphorylation state-specific antibody. Lysates from quiesced cells stimulated for […] with either neuropeptide or SP-D or SP-G were separated on 12% gels and blotted for pERK2 or total ERK1/2.
Figure 6 (A) ERK phosphorylation by neuropeptides. Quiescent GRP (left) or V1A (right) receptor expressing CHO cells were stimulated for 5 min with neuropeptide at the indicated concentrations. […] Representative Western blots are shown. Bar graphs represent the mean optical density (mean±s.e.m.) of four separate experiments. (B) ERK phosphorylation by substance-P analogues. Quiescent GRP (left) or V1A (right) receptor expressing CHO cells were stimulated for 5 min with SP-D (filled bars) or SP-G (open bars) at the indicated concentrations. […] Representative Western blots are shown. […]

[7] = tested on: ERK phosphorylation in GRP receptor expressing CHO cells; test: ERK phosphorylation (Western blot), GRP receptor expressing CHO cells; format: cell-based; conditions: for maximal stimulation of ERK: at 50 μM
Procedure: as §1, §6
Figure 6 (A) ERK phosphorylation by neuropeptides. Quiescent GRP (left) or V1A (right) receptor expressing CHO cells were stimulated for 5 min with neuropeptide at the indicated concentrations. […] Representative Western blots are shown. Bar graphs represent the mean optical density (mean±s.e.m.) of four separate experiments. (B) ERK phosphorylation by substance-P analogues. Quiescent GRP (left) or V1A (right) receptor expressing CHO cells were stimulated for 5 min with SP-D (filled bars) or SP-G (open bars) at the indicated concentrations. […] Representative Western blots are shown. Bar graphs represent the mean optical density (mean±s.e.m.) of four separate experiments.
Figure 7 Effect of pertussis toxin (PTX) on ERK phosphorylation. Confluent cultures of GRP (left) or V1A (right) receptor expressing CHO cells were quiesced overnight in the presence or absence of 100 ng ml^−1 pertussis toxin. Cells were stimulated for 5 min with 30 μM SP-D or SP-G or 1 nM neuropeptide as indicated. […] Representative Western blots are shown.

[8] = tested on: V1A receptor expressing CHO-K1 cells; test: Clonogenic assay in semisolid media, V1A receptor expressing cells; format: cell-based; conditions: 30 μM, 0.3% agar, 1% FCS, 8 days
Procedure: (§7) CHO-K1 (2x10^4) viable cells were mixed with DMEM containing 0.3% agarose in the presence or absence of mediators and layered over a solid base of 0.5% agarose in DMEM in 35 mm plastic dishes. The cultures were incubated at 37°C for 1–10 days, and then stained with 1 mg ml^−1 nitro-blue tetrazolium (NBT, Sigma) overnight at 37°C. Colonies from 10 separate fields were counted using a microscope with a × 4 objective. Cloning efficiency is calculated as the percentage of original number of seeded cells forming colonies of >6 cells.
as §5

human GRP receptor = biological target: T2, human GRP receptor (Homo sapiens, UniProt P30550); test: Intracellular Ca2+ (FURA-2), CHO-GRP cells; format: cell-based; conditions: in absence of GRP
T2 construct: CHO-K1 cells were transfected with full-length human GRP receptor or human V1A receptor; expressed in transfected cells
T2 sequence (P30550 whole entry): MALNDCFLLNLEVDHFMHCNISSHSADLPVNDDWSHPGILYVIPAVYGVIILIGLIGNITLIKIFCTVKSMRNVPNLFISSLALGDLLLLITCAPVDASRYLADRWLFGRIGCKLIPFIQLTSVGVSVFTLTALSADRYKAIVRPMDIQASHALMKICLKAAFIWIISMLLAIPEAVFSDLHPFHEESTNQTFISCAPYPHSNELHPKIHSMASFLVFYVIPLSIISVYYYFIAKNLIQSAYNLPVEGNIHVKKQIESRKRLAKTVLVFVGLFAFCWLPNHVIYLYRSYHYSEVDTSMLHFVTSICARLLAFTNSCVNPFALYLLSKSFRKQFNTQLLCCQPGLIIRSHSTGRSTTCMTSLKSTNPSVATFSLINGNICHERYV
Procedure: (§8) Cells were trypsinised and loaded with fura-2-tetraacetoxymethylester AME (FURA-2-AM, 1 μM) in calcium-free Hank's balanced salt solution for 10 min at 37°C. The cells were pelleted and resuspended in 2 ml of Hank's balanced salt solution containing 1.8 mM CaCl2. Fluorescence was recorded in a fluorescence spectrophotometer (Perkin Elmer). Alternate dual wavelength excitation at 380 and 410 nm allowed ratiometric analysis of bound and unbound FURA-2AM when measured at 505 nm. [Ca^2+] was calculated according to the equation [Ca^2+]=K(F−Fmin)/(Fmax−F), where F is the ratio of the unknown sample, Fmax is the ratio after the addition of 0.1% Triton X-100 and Fmin is the ratio after Ca^2+ chelation with 10 mM EGTA. K is the dissociation constant for Fura-2, which is 224 nM.
(§9) Quiescent GRP (A, B) or V1A (C, D) receptor expressing CHO cells were incubated with FURA-2AM for 15 min at 37°C and ratiometric fluorescence monitored at 37°C. […] Concentration–response curves to vasopressin were carried out in control cells and in cells treated with 1 or 10 μM SP-D (C) or SP-G (D). Results are expressed as % maximum control response to neuropeptide and represent the mean±s.e.m. of four experiments.

[9] = tested on: GRP receptor expressing CHO-K1 cells; test: Clonogenic assay in semisolid media, GRP receptor expressing cells; format: cell-based; conditions: 30 μM, 0.3% agar, 1% FCS, 8 days
Procedure: as §7, §5

[10] = tested on: GRPR-transfected CHO-K1 cells; test: Aggregation assay (anchorage-independent growth), GRPR-transfected cells; format: cell-based; conditions: low adhesion plates, 5% FCS, 7 days, viable cells counted
Procedure: as §4, §5

[11] = tested on: vector control CHO-K1 cells; test: Clonogenic assay in semisolid media, vector control cells; format: cell-based; conditions: 30 μM, 0.3% agar, 1% FCS, 8 days
Procedure: as §7, §5

human V1A receptor [12] = biological target: T1, human V1A receptor; test: Intracellular Ca2+ (FURA-2), V1A-expressing CHO cells; format: cell-based; conditions: in absence of AVP
Procedure: as §8, §9

[13] = 48 h, absence of serum, read-out: IC50, inhibition of proliferation (MTT)
[14] = 48 h serum-free, no neuropeptide, read-out: IC50 (MTT), control cells of neuropeptide protection experiment

Row | SMILES | cell growth in aggregation assay [5] | stimulation of ERK [6] | maximal stimulation of ERK [7] | colony formation [8] | change in [Ca2+]i on their own (human GRP receptor) | colony formation [9] | cell growth in aggregation assay [10] | cloning efficiency [11] | direct mobilisation of intracellular calcium (human V1A receptor [12]) | also measured
1 | CSCC[C@H](NC(=O)[C@H](CC(C)C)NC(=O)[C@H](Cc1c[nH]cn1)NC(=O)CNC(=O)[C@@H](NC(=O)[C@H](C)NC(=O)[C@H](Cc1c[nH]c2ccccc12)NC(=O)[C@H](Cc1c[nH]cn1)NC(=O)[C@H](CC(N)=O)NC(=O)CNC(=O)[C@H](CCCNC(=N)N)NC(=O)[C@@H]1CCCN1C(=O)[C@H](Cc1ccc(O)cc1)NC(=O)[C@H](CCSC)NC(=O)[C@H](CCCCN)NC(=O)[C@@H](NC(=O)[C@H](CC(C)C)NC(=O)[C@@H](NC(=O)[C@@H](NC(=O)CNC(=O)CNC(=O)CNC(=O)[C@H](C)NC(=O)[C@@H]1CCCN1C(=O)[C@H](CC(C)C)NC(=O)[C@@H]1CCCN1C(=O)[C@@H](N)C(C)C)[C@@H](C)O)C(C)C)[C@@H](C)O)C(C)C)C(N)=O [GRP, gastrin-releasing peptide] | – | – | – | – | – | – | – | – | – | stimulation of ERK phosphorylation [1]: Neither AVP nor GRP produced any stimulation; change in [Ca2+]i [2]: neither GRP nor AVP produced a significant change
2 | COc1cc([C@@H]2c3cc4c(cc3[C@@H](O[C@@H]3O[C@@H]5CO[C@@H](C)O[C@H]5[C@H](O)[C@H]3O)[C@H]3COC(=O)[C@H]23)OCO4)cc(OC)c1O [etoposide] | – | – | – | – | – | – | – | – | – | IC50 (CHO-GRPr cells; [13]): 8.1 ± 2.3 µg/mL (≈ 13.8 µM); IC50 (CHO-GRPr cells; [14]): 6.3 µg/mL (≈ 10.7 µM); IC50 (CHO-V1Ar cells; [13]): 14.2 ± 4 µg/mL (≈ 24.1 µM); IC50 (CHO-V1Ar cells; [14]): 13 µg/mL (≈ 22.1 µM); IC50 (CHO-WT cells): 12.4 ± 3.1 µg/mL (≈ 21.1 µM)
3 | CSCC[C@H](NC(=O)[C@H](CC(C)C)NC(=O)[C@@H](Cc1c[nH]c2ccccc12)NC(=O)[C@H](Cc1ccccc1)N(C)C(=O)[C@@H](Cc1c[nH]c2ccccc12)NC(=O)[C@@H](N)CCCNC(=N)N)C(N)=O [SP-G, [Arg^6,D-Trp^7,9,N^mePhe^8]-substance-P (6–11)] (H-R[dW][NMeF][dW]LM-NH2; N-terminus and C-terminus assumed) | able to inhibit cell growth | 4.3 fold | 2.1 fold | significantly reduced colony formation | no change | significantly reduced colony formation | able to inhibit cell growth | no effect | did not mobilise intracellular calcium directly | selectivity for the V1A receptor (human V1A receptor [3]): six; toxicity in phase I clinical trial [4]: minimal toxicity; effect of pertussis toxin pretreatment on ERK activation by the substance ([6]; 100 ng ml^−1 PTX overnight, AVP, 20 μM SP-G, 1 μM LPA): completely inhibited
4 | CC(C)C[C@H](NC(=O)[C@H](CC(C)C)NC(=O)[C@@H](Cc1c[nH]c2ccccc12)NC(=O)[C@H](Cc1ccccc1)NC(=O)[C@@H](Cc1c[nH]c2ccccc12)NC(=O)[C@H](CCC(N)=O)NC(=O)[C@@H](Cc1ccccc1)NC(=O)[C@@H]1CCCN1C(=O)[C@H](CCCCN)NC(=O)[C@@H]1CCCN1C(=O)[C@H](N)CCCNC(=N)N)C(N)=O [SP-D, [D-Arg^1,D-Phe^5,D-Trp^7,9,Leu^11]-substance-P] (H-[dR]PKP[dF]Q[dW]F[dW]LL-NH2; N-terminus and C-terminus assumed) | able to inhibit cell growth | 2 fold | 2.8 fold | significantly reduced colony formation | no change | significantly reduced colony formation | able to inhibit cell growth | no effect | did not mobilise intracellular calcium directly | concentration at which activation of ERK was evident [7]: 3 µM; effect of pertussis toxin pretreatment on ERK activation by the substance ([7]; 100 ng ml^−1 PTX overnight, bombesin, 10 μM SP-D, 1 μM LPA): completely abolished
5 | NC(=O)CC[C@@H]1NC(=O)[C@H](Cc2ccccc2)NC(=O)[C@H](Cc2ccc(O)cc2)NC(=O)[C@@H](N)CSSC[C@@H](C(=O)N2CCC[C@H]2C(=O)N[C@@H](CCCN=C(N)N)C(=O)NCC(N)=O)NC(=O)[C@H](CC(N)=O)NC1=O [AVP, arginine vasopressin] | – | – | – | – | – | – | – | – | – | increase in MTT accumulation compared to control cells (CHO-V1Ar cells; 50 nM neuropeptide, at 40 μg ml^−1 etoposide, 48 h): 92%
